From patent US10028992B2, “Methods of treating muscular dystrophy” (BOARD OF REGENTS OF THE NEVADA SYSTEM OF HIGHER EDUCATION …, priority 2012, dated 2018)

System: α7 integrin promoter
Assay: muscle cell-based assay: α7βgal+/− myoblasts/myotubes, LacZ reporter, β-galactosidase cleavage of FDG
Set-up: species or system mouse; Results in α7+/− β-galactosidase assay: scale not given here
Conditions: for AC50: log of AC50, given with negative sign, unit of AC50 not given, read-out: Fit Log AC50 (converted); for Emax: read-out: Max Response [%]; for Fit Curve Class: key not given; for Results in α7+/− β-galactosidase assay: Myoblasts; for Results in a α7+/− β-galactosidase assay, Myotubes, 0.5 uM: compound at 0.5 uM; for Results in a α7+/− β-galactosidase assay, Myotubes, 1 uM: compound at 1 uM; for Results in a α7+/− β-galactosidase assay, Myotubes, 5 uM: compound at 5 uM; for Results in a α7+/− β-galactosidase assay, Myotubes, 10 uM: compound at 10 uM; for Results in a α7+/− β-galactosidase assay, Myotubes, 20 uM: compound at 20 uM; for Results in a α7+/− β-galactosidase assay, Myotubes, 40 uM: compound at 40 uM
Procedure, shortened: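 Fluorescein generated from FDG by β-galactosidase reports α7 integrin promoter activity in differentiated myoblasts from α7+/− LacZ knock-in pups. Screening hits then went to dose-response, western blotting and a myostatin counterscreen.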

[1] = Table 12, fitted activity at zero concentration
[2] = Table 12 Compound data, concentration-response curve fit

## CC(NC(=O)c1cn(C)c2ccc(S(=O)(=O)N3CCCC3)cc2c1=O)c1ccccc1 (stereo not drawn) [Compound 28]
Mus musculus, Table 12
  AC50: 2.82 µM
Mus musculus
  Emax: 54.7%
Table 12, curve fit
  Fit HillSlope: 2.5334
[1]
  Fit Zero Activity [%]: −36.6914%
Table 12
  Fit Curve Class: 1.1
[2]
  Score: 83

## O=C1C2CCCN2C(=O)N1CCCN1CCN(c2cccc(Br)c2)CC1 (stereo not drawn) [drawing 661]
0.5 uM
  Results in α7+/− β-galactosidase assay: 0.07667
1 uM
  Results in α7+/− β-galactosidase assay: 0.0555
5 uM
  Results in α7+/− β-galactosidase assay: 0.04982
10 uM
  Results in α7+/− β-galactosidase assay: 0.05028
20 uM
  Results in α7+/− β-galactosidase assay: 0.1016
40 uM
  Results in α7+/− β-galactosidase assay: 0.1941

## c1ccc(-c2nn[nH]n2)nc1 [drawing 408]
  Results in a α7+/− β-galactosidase assay, Myotubes, 0.5 uM: −0.05084
  Results in a α7+/− β-galactosidase assay, Myotubes, 1 uM: −0.03177
  Results in a α7+/− β-galactosidase assay, Myotubes, 5 uM: −0.024
  Results in a α7+/− β-galactosidase assay, Myotubes, 10 uM: −0.07161
  Results in a α7+/− β-galactosidase assay, Myotubes, 20 uM: 0.03157
  Results in a α7+/− β-galactosidase assay, Myotubes, 40 uM: 0.04635

## COc1ccc(N2CCN(C(=O)c3cc(C)on3)CC2)cc1 [drawing 539]
0.5 uM
  Results in α7+/− β-galactosidase assay: 0.06118
1 uM
  Results in α7+/− β-galactosidase assay: 0.157
5 uM
  Results in α7+/− β-galactosidase assay: 0.07966
10 uM
  Results in α7+/− β-galactosidase assay: 0.01243
20 uM
  Results in α7+/− β-galactosidase assay: 0.1011
40 uM
  Results in α7+/− β-galactosidase assay: 0.07367

## Cc1ccsc1-c1nnc(S)n1C1CCCCC1 [drawing 621]
0.5 uM
  Results in α7+/− β-galactosidase assay: 0.007736
1 uM
  Results in α7+/− β-galactosidase assay: 0.002953
5 uM
  Results in α7+/− β-galactosidase assay: 0.06001
10 uM
  Results in α7+/− β-galactosidase assay: −0.06828
20 uM
  Results in α7+/− β-galactosidase assay: −0.1538
40 uM
  Results in α7+/− β-galactosidase assay: −0.1034

## COc1ccc(Cl)cc1NC(=O)c1cc(-c2cc(C)ccc2O)[nH]n1 [drawing 373]
  Results in a α7+/− β-galactosidase assay, Myotubes, 0.5 uM: 0.00543
  Results in a α7+/− β-galactosidase assay, Myotubes, 1 uM: 0.04041
  Results in a α7+/− β-galactosidase assay, Myotubes, 5 uM: −0.08884
  Results in a α7+/− β-galactosidase assay, Myotubes, 10 uM: −0.1274
  Results in a α7+/− β-galactosidase assay, Myotubes, 20 uM: −0.1168
  Results in a α7+/− β-galactosidase assay, Myotubes, 40 uM: −0.2232

## Cc1ccc(-c2csc(Nc3ccc(C(=O)O)cc3)[n+]2Cc2ccccc2)cc1.[Br-] [Compound 126]
Mus musculus, given as log AC50 (negative values), read-out: Fit LogAC50 (converted)
  EC50: 8.91 µM
Table 12 compound data
  Score: 43
Curve class number
  Fit Curve Class: 2.1
Curve fit
  Fit HillSlope: 1
Curve fit, activity at zero concentration
  Fit Zero Activity [%]: 0.673%

## C=CCN(CC=C)C(=O)c1ccc(OC2CCN(S(=O)(=O)N(C)C)CC2)cc1 [Compound 64]
Mus musculus, Table 12
  AC50: 5.01 µM
Table 12, curve fit
  Fit HillSlope: 2.4729
[1]
  Fit Zero Activity [%]: −4.9734%
Table 12
  Fit Curve Class: 2.1
[2]
  Score: 45

## CCCCNc1nnc(SCC(=O)c2c(N)n(CCC)c(=O)[nH]c2=O)s1 [Compound 69]
Mus musculus, Table 12
  AC50: 3.98 µM
Table 12, curve fit
  Fit HillSlope: 1.3987
[1]
  Fit Zero Activity [%]: −2.436%
Table 12
  Fit Curve Class: 2.1
[2]
  Score: 44

## Oc1nc2ccccc2nc1-c1c[nH]c2ccccc12 [drawing 417]
  Results in a α7+/− β-galactosidase assay, Myotubes, 0.5 uM: −0.06072
  Results in a α7+/− β-galactosidase assay, Myotubes, 1 uM: −0.2204
  Results in a α7+/− β-galactosidase assay, Myotubes, 5 uM: −0.08742
  Results in a α7+/− β-galactosidase assay, Myotubes, 10 uM: 0.05064
  Results in a α7+/− β-galactosidase assay, Myotubes, 20 uM: −0.4132
  Results in a α7+/− β-galactosidase assay, Myotubes, 40 uM: −0.2613

## COc1cc(=O)n(C)c2ccccc12 [Compound 25]
Mus musculus, Table 12
  AC50: 2.24 µM
Mus musculus
  Emax: 63%
Table 12, curve fit
  Fit HillSlope: 1.6604
[1]
  Fit Zero Activity [%]: −18.7854%
Table 12
  Fit Curve Class: 1.1
[2]
  Score: 84

## COc1ccc2c(c1)C(=C(C#N)C#N)C(=O)N2CCc1ccccc1 [drawing 522]
0.5 uM
  Results in α7+/− β-galactosidase assay: 0.199
1 uM
  Results in α7+/− β-galactosidase assay: 0.06668
5 uM
  Results in α7+/− β-galactosidase assay: −0.157
10 uM
  Results in α7+/− β-galactosidase assay: 0.1343
20 uM
  Results in α7+/− β-galactosidase assay: −0.3414
40 uM
  Results in α7+/− β-galactosidase assay: −0.3915

## Cc1cccc(NCC(=O)N/N=C/c2ccccn2)c1 [drawing 691]
0.5 uM
  Results in α7+/− β-galactosidase assay: 0.1681
1 uM
  Results in α7+/− β-galactosidase assay: 0.3046
5 uM
  Results in α7+/− β-galactosidase assay: 0.3928
10 uM
  Results in α7+/− β-galactosidase assay: 0.1778
20 uM
  Results in α7+/− β-galactosidase assay: −0.1319
40 uM
  Results in α7+/− β-galactosidase assay: −0.4037

## COc1cccc(C(=O)COc2ccc3ccc(=O)oc3c2)c1 [drawing 571]
0.5 uM
  Results in α7+/− β-galactosidase assay: 0.09281
1 uM
  Results in α7+/− β-galactosidase assay: 0.06053
5 uM
  Results in α7+/− β-galactosidase assay: −0.01266
10 uM
  Results in α7+/− β-galactosidase assay: 0.02813
20 uM
  Results in α7+/− β-galactosidase assay: 0.004164
40 uM
  Results in α7+/− β-galactosidase assay: −0.04457

## Cc1noc(C)c1COc1ccc(C(=O)NCCc2ccccn2)cc1 [drawing 386]
  Results in a α7+/− β-galactosidase assay, Myotubes, 0.5 uM: 0.08027
  Results in a α7+/− β-galactosidase assay, Myotubes, 1 uM: 0.1153
  Results in a α7+/− β-galactosidase assay, Myotubes, 5 uM: −0.04323
  Results in a α7+/− β-galactosidase assay, Myotubes, 10 uM: 0.2279
  Results in a α7+/− β-galactosidase assay, Myotubes, 20 uM: −0.2443
  Results in a α7+/− β-galactosidase assay, Myotubes, 40 uM: −0.1582
